Measured values reported in ChEMBL document CHEMBL4689842, “EUbOPEN Chemogenomics Library wave 1” (2021).

Assays:
HEK-293T = assay: Incucyte cell viability with HEK293T; assay type: toxicity, cell-based; details: human, 10 µM, compound concentration 10 uM
U2OS = assay: Incucyte cell viability with U2OS; assay type: toxicity, cell-based; details: human, 10 µM, compound concentration 10 uM
[1] = 6 h, replicate number 1, timepoint 6 hours
[2] = 12 h, replicate number 1, timepoint 12 hours
[3] = 18 h, replicate number 1, timepoint 18 hours
[4] = 24 h, replicate number 1, timepoint 24 hours
[5] = 0 h, replicate number 2, timepoint 0 hours
[6] = 6 h, replicate number 2, timepoint 6 hours
[7] = 0 h, replicate number 1, timepoint 0 hours
[8] = 12 h, replicate number 2, timepoint 12 hours
[9] = 18 h, replicate number 2, timepoint 18 hours
[10] = 24 h, replicate number 2, timepoint 24 hours
Note: filed as whole numbers so only -1 and 0 and 1 occur.

| SMILES | Growth Rate (HEK-293T; [1]) | Growth Rate (HEK-293T; [2]) | Growth Rate (HEK-293T; [3]) | Growth Rate (HEK-293T; [4]) | Growth Rate (U2OS; [5]) | Growth Rate (U2OS; [1]) | Growth Rate (U2OS; [6]) | Growth Rate (U2OS; [2]) | Growth Rate (U2OS; [3]) | Growth Rate (U2OS; [4]) | Growth Rate (U2OS; [7]) | Growth Rate (U2OS; [8]) | Growth Rate (U2OS; [9]) | Growth Rate (U2OS; [10]) | Growth Rate (HEK-293T; [7]) | Growth Rate (HEK-293T; [5]) | Growth Rate (HEK-293T; [9]) | Growth Rate (HEK-293T; [6]) | Growth Rate (HEK-293T; [8]) | Growth Rate (HEK-293T; [10]) |
| --- | --- | --- | --- | --- | --- | --- | --- | --- | --- | --- | --- | --- | --- | --- | --- | --- | --- | --- | --- | --- |
| CCc1cccc(CC)c1NC(=O)c1nn(C)c2c1CCc1cnc(Nc3ccc(C(=O)NC4CCN(C)CC4)cc3OC(F)(F)F)nc1-2 | 0 | 0 | 0 | 0 | 0 | 1 | 0 | 0 | 0 | 0 | – | – | – | – | – | – | – | – | – | – |
| O=C1N/C(=N/c2ccccc2F)S/C1=C\c1ccc(C(=O)O)cc1 | – | 1 | – | 1 | 1 | – | – | 1 | 1 | 1 | 0 | 0 | 0 | 0 | – | – | – | – | – | – |
| CNc1cc(Oc2cc(C(=O)Nc3cc(N4CCN(C)CC4)cc(C(F)(F)F)c3)ccc2C)ncn1 | 0 | 0 | 0 | 0 | 1 | 0 | – | 0 | 0 | 0 | 0 | – | – | – | – | – | – | – | – | – |
| COc1ccc(S(=O)(=O)N(CCO)c2ccccc2CN(C)C/C=C/c2ccc(Cl)cc2)cc1.O=P(O)(O)O | 0 | 0 | 0 | 0 | 1 | 0 | 1 | 0 | 0 | 0 | 0 | 1 | – | – | – | – | – | – | – | – |
| C=CCn1c(=O)c2cnc(Nc3ccc(N4CCN(C)CC4)cc3)nc2n1-c1cccc(C(C)(C)O)n1 [ADAVOSERTIB] | 0 | 0 | 0 | 0 | – | 0 | – | 0 | 0 | 0 | 0 | – | – | – | – | – | – | – | – | – |
| COc1cc(N2CCC(N3CCN(C)CC3)CC2)ccc1Nc1ncnc(Nc2ccccc2S(=O)(=O)C(C)C)n1 [ASP-3026] | 0 | 0 | 0 | 0 | 0 | 0 | 1 | 0 | 0 | 0 | – | – | – | – | – | – | – | – | – | – |
| O=C(Nc1ccc(-n2nc(-c3cccnc3)cc2C(F)(F)F)cn1)c1ccc(-c2ccccc2)c(F)c1 [BI 2049] | 0 | 0 | 0 | 0 | – | 0 | 1 | 0 | 0 | 0 | – | – | – | – | 1 | – | – | – | – | – |
| Cn1nc(C(=O)NCc2ccc(C(=O)O)cc2)cc1-c1ccc2[nH]ccc2c1 [BI 4395] | – | 0 | 0 | 0 | 0 | 1 | – | 1 | 1 | 1 | – | – | – | – | 0 | 1 | 1 | – | – | – |
| COCC(=O)NC/C=C/c1ccc2ncnc(Nc3ccc(Oc4ccc(C)nc4)c(C)c3)c2c1 [CP-724714] | 0 | 0 | 0 | 0 | 1 | 1 | – | 1 | 0 | 1 | 0 | – | – | 0 | – | – | – | – | – | – |
| COc1cc2ncnc(Nc3ccc(F)c(Cl)c3)c2cc1NC(=O)/C=C/CN1CCCCC1 [DACOMITINIB ANHYDROUS] | 0 | 0 | 0 | 0 | – | 0 | – | 0 | 0 | 0 | 0 | – | – | – | – | – | – | – | – | – |
| C=C1/C(=C\C=C2/CCC[C@]3(C)[C@@H]([C@H](C)/C=C/[C@H](C)C(C)C)CC[C@@H]23)C[C@@H](O)C[C@@H]1O [DOXERCALCIFEROL] | 0 | 0 | 0 | 0 | – | – | – | 1 | 1 | 0 | 0 | 0 | 0 | – | 0 | – | – | – | – | – |
| CCCn1c(=O)c2[nH]c(-c3cnn(Cc4cccc(C(F)(F)F)c4)c3)nc2n(CC)c1=O [GS 6201] | 0 | 0 | 0 | 0 | – | – | – | – | 1 | 1 | 0 | 1 | 0 | 0 | 1 | 0 | – | 1 | 1 | – |
| CCn1cc(-c2ccnc3[nH]c(-c4cccc(CN(C)C)c4)cc23)c(-c2ccc(NC(=O)N(C)C)cc2)n1 [GSK-1070916] | 0 | 0 | 0 | 0 | – | 0 | – | 0 | 0 | 0 | 1 | – | – | – | – | 1 | – | – | – | – |
| CCN1CCN(c2ccc(Nc3cc(N(C)C(=O)Nc4c(Cl)c(OC)cc(OC)c4Cl)ncn3)cc2)CC1 [INFIGRATINIB] | 0 | 0 | 0 | 0 | 0 | 1 | – | 0 | 0 | 0 | – | – | – | – | – | – | – | – | – | – |
| CN1CCC(=C2c3ccccc3CC(=O)c3sccc32)CC1.O=C(O)/C=C/C(=O)O [KETOTIFEN FUMARATE] | 0 | 0 | 0 | 0 | – | – | 0 | 1 | 1 | 1 | 1 | – | – | 0 | – | 1 | – | – | – | – |
| COc1ccc(-c2ccc3c(N4CCOCC4)nc(N4C[C@@H](C)O[C@@H](C)C4)nc3n2)cc1CO [Ku-0063794] | 0 | 0 | 0 | 0 | – | 1 | – | 1 | 0 | 0 | 0 | – | – | – | – | – | – | – | – | – |
| CN(C)C(=O)C(CCN1CCC(O)(c2ccc(Cl)cc2)CC1)(c1ccccc1)c1ccccc1.Cl [LOPERAMIDE HYDROCHLORIDE] | 0 | 0 | 0 | 0 | – | 0 | – | 0 | 0 | 0 | – | – | – | – | – | 1 | – | – | – | – |
| C[C@H]1Oc2cc(cnc2N)-c2c(nn(C)c2C#N)CN(C)C(=O)c2ccc(F)cc21 [LORLATINIB] | 0 | 0 | 0 | 0 | 1 | 1 | – | 1 | 1 | 1 | – | – | – | – | 0 | – | – | – | – | – |
| O=C1NC(=O)C(c2cnc3ccccn23)=C1c1cn2c3c(cc(F)cc13)CN(C(=O)N1CCCCC1)CC2 [LY-2090314] | 0 | – | 1 | 1 | – | 0 | – | 0 | 0 | 0 | 0 | – | – | – | 0 | – | – | – | 0 | 0 |
| CCOc1cc2ncc(C#N)c(Nc3ccc(OCc4ccccn4)c(Cl)c3)c2cc1NC(=O)/C=C/CN(C)C [NERATINIB] | 0 | 0 | 0 | 0 | 0 | 0 | 1 | 0 | 0 | 0 | – | – | – | – | 0 | – | – | – | – | – |
| Cc1cn(-c2cc(NC(=O)c3ccc(C)c(Nc4nccc(-c5cccnc5)n4)c3)cc(C(F)(F)F)c2)cn1 [NILOTINIB] | 0 | 1 | 1 | 0 | 0 | 0 | – | 0 | 0 | 0 | – | – | 1 | 1 | 0 | – | – | – | 0 | 1 |
| COc1cccc2cc(-c3nc([C@H]4CC[C@H](C(=O)O)CC4)n4ncnc(N)c34)[nH]c12 [OSI-027] | 0 | 0 | 0 | 0 | – | 1 | – | 1 | 0 | 0 | 1 | – | 1 | – | 1 | – | – | – | – | – |
| CCCS(=O)(=O)Nc1ccc(F)c(C(=O)c2c[nH]c3ncc(Cl)cc23)c1F [PLX-4720] | 0 | 0 | 0 | 0 | – | 1 | – | 0 | 0 | 0 | 0 | 1 | – | – | 0 | 1 | – | – | – | – |
| CN1CCN(C(=O)C(C)(C)c2ccc(C(=O)Nc3cn4cc(-c5cc(C(C)(C)C)cc(C(C)(C)C)c5)ccc4n3)cc2)CC1 [T3-CLK-N] | 0 | 0 | 0 | 0 | 0 | – | – | 1 | 0 | 0 | – | – | 1 | 1 | – | 1 | – | – | – | – |
| O=C(Cc1ccc(-c2ccc(OCCN3CCOCC3)cc2)cn1)NCc1ccccc1 [TIRBANIBULIN] | 0 | 0 | 0 | 0 | 0 | 1 | – | 0 | 0 | 0 | – | – | – | – | – | – | – | – | – | – |
| Cn1nc(C(F)(F)F)cc1-c1cnc(N2CCc3cc(S(=O)(=O)Nc4c(F)cc(Cl)cc4F)cc(N4CCCC4=O)c32)nc1 [TP-020] | 0 | 0 | 0 | 0 | 1 | 0 | – | 1 | 1 | 1 | – | 0 | 0 | 0 | 0 | 1 | – | 1 | – | – |
